{"source": "paper PMC5844530", "about": "“Fosmetpantotenate (RE-024), a phosphopantothenate replacement therapy for pantothenate kinase-associated neurodegeneration: Mechanism of action and efficacy in nonclinical models” (PLoS ONE, 2018)", "key": {"liver and brain CoA": {"tested_on": "liver and brain CoA", "assay": "Labeled experiments: incorporation of isotopically labeled fosmetpantotenate into CoA", "format": "in vivo, mouse", "settings": "125 μg intrastriatally; 6 h", "description": "Fosmetpantotenate was labeled with three ^13C and one ^15N in the PA moiety and with one ^18O in the phosphate moiety, as indicated in Fig 10. The premise of this experiment is the following: if PPA incorporated into CoA originates from fosmetpantotenate metabolism, then all isotope labels (including the ^18O) will be retained in the CoA molecule, resulting in an increase in molecular weight of 6 atomic mass units (AMU) with respect to unlabeled CoA ([M+H]^+ = 774.3 vs 768.3, respectively; Fig 10, Path A). However, if fosmetpantotenate is hydrolyzed to PA, and PA is then re-phosphorylated by WT PanK to yield PPA, or if the ^18O is exchanged with water, then the ^18O would be lost in the process, resulting in a CoA molecule with a 4-AMU increase in molecular weight over unlabeled CoA ([M+H]^+ = 772.3 vs 768.3, respectively, […], Path B). CoA derived from endogenous PA/PPA will have the unchanged molecular weight ([M+H]^+ = 768.3).\nAnimal phase: C57BL6N mice, 8-week old and 19 to 21 g obtained from Charles River (Como, Italy) were used in these studies. One group of mice (N = 3 per time point) received a single oral dose of 500 mg/kg isotopically labeled fosmetpantotenate dissolved in 20% hydroxypropyl-β-cyclodextrin. Another set of mice (N = 8 per time point) received a direct administration of isotopically labeled fosmetpantotenate at 125 μg (25 mg/mL of aCSF containing 147 mM NaCl, 3.0 mM KCl, 1.2 mM CaCl2, and 1.2 mM MgCl2) via cannula into striatum. Brain, liver, and blood samples were collected at pre-dose, 6 h, 12 h (brain only), and 24 h, and were snap frozen in liquid nitrogen.\nTwo additional groups of mice (N = 6 per time point for each group) received 3 daily doses (8 am, 2 pm, and 8 pm to mimic an anticipated human dosing schedule) of isotopically labeled fosmetpantotenate at either 1.25 μg (0.625 mg/mL aCSF) or 12.5 μg (6.25 mg/mL aCSF) via ICV infusion cannula (2 μL), for up to 10 consecutive days. Brain (striatum) samples were collected at pre-dose, and at 12 h following the third dose on days 1, 3, 7, and 10, and were snap frozen in liquid nitrogen.\nSample processing: Brain (striatum) and liver tissues were homogenized in a Precellys homogenizer (Bertin technologies, Montigny-le-Bretonneux, France) with 3 volumes of water for each volume of tissue (1:4 dilution). Protein was precipitated by adding 500 μL methanol to 100 μL of homogenate (1:6 dilution), mixed well, and centrifuged. Blood cells (1 volume) were treated with 1:8 v:v water:methanol (1:10 dilution), mixed, and centrifuged. The supernatants (200 μL for brain and blood cells and 100 μL for liver) were dried under nitrogen, reconstituted with 100 μL ammonium acetate 10 mM (pH ~5), and injected (10 μL) into the LC for high resolution mass spectrometry (HRMS) analyses.\nCoA determination: An Acquity UPLC (Waters) system was used. Samples were chromatographed on a Luna C18 column (50 x 2.0 mm; 5 μm), with a 0.4 mL/min flow rate and a 10 μL injection volume. The mobile phases were (A), 10 mM ammonium acetate in water, pH 6.8 and (B) acetonitrile:2-propanol (9:1; v:v). The gradient was started with 2% (B) and was increased linearly to reach 20% (B) at 5 min; the gradient was ramped to reach 90% (B) at 5.1 min and kept isocratic at 90% (B) through 7.1 min.\nThe detector was a Waters QTOF Synapt mass spectrometer, with an electrospray ion source operating in the positive scanning mode acquiring in full scan mode (accuracy <5 ppm). The following exact masses were determined: 768.1230 for CoA, 772.1301 for CoA +4 AMU, and 774.1344 for CoA +6 AMU.\nThe CoA levels obtained by MS/MS analyses were corrected for ^18O isotopic incorporation. CoA levels were not adjusted for the 1% and 2% of ^12C and ^14N, respectively, in the labeled fosmetpantotenate. […]"}, "[1]": {"assay": "Microdialysis (brain striatal dialysate) in C57Bl6 mice", "settings": "for Fosmetpantotenate Total Concentration in Mouse Striatal Dialysate (Corrected for Dilution): individual mice, non-fasted male C57/Bl6; for Fosmetpantotenate Total Concentration in Mouse Striatal Dialysate (Corrected for Dilution), Mean: mean of 8 mice"}, "[2]": {"settings": "single oral 700 mg/kg fosmetpantotenate, collection time 0 hr, BQL=8.08 nM"}, "[3]": {"settings": "single oral 700 mg/kg fosmetpantotenate, collection time 0.5 hr, BQL=8.08 nM"}, "[4]": {"settings": "single oral 700 mg/kg fosmetpantotenate, collection time 1 hr, BQL=8.08 nM"}, "[5]": {"settings": "single oral 700 mg/kg fosmetpantotenate, collection time 1.5 hr, BQL=8.08 nM"}, "[6]": {"settings": "single oral 700 mg/kg fosmetpantotenate, collection time 2 hr, BQL=8.08 nM"}, "[7]": {"settings": "single oral 700 mg/kg fosmetpantotenate, collection time 2.5 hr, BQL=8.08 nM"}, "[8]": {"settings": "single oral 700 mg/kg fosmetpantotenate, collection time 3 hr, BQL=8.08 nM"}, "[9]": {"settings": "single oral 700 mg/kg fosmetpantotenate, collection time 3.5 hr, BQL=8.08 nM"}, "[10]": {"settings": "single oral 700 mg/kg fosmetpantotenate, collection time 4 hr, BQL=8.08 nM"}, "[11]": {"settings": "male, C57Bl6, mouse, striatal dialysate (brain microdialysate), other: direct infusion into the striatum via cannula, 125 µg per animal"}}, "note": "Where “and” joins values, the source holds several entries; their conditions need not be identical. Identical values can stand only once."}
{"smiles": "COC(=O)CCNC(=O)[C@H](O)C(C)(C)COP(=O)(N[C@@H](C)C(=O)OC)Oc1ccccc1", "note": "(mixture of isomers) [Fosmetpantotenate]", "values": [{"measurement": "Brain CoA (%) +6 AMU", "setting": "liver and brain CoA", "value": 36.2, "unit": "%"}, {"measurement": "Fosmetpantotenate Total Concentration in Mouse Striatal Dialysate (Corrected for Dilution)", "setting": "[1]; [2]", "value": "BQL"}, {"measurement": "Fosmetpantotenate Total Concentration in Mouse Striatal Dialysate (Corrected for Dilution)", "setting": "[1]; [3]", "value": "BQL"}, {"measurement": "Fosmetpantotenate Total Concentration in Mouse Striatal Dialysate (Corrected for Dilution)", "setting": "[1]; [4]", "value": "BQL"}, {"measurement": "Fosmetpantotenate Total Concentration in Mouse Striatal Dialysate (Corrected for Dilution)", "setting": "[1]; [5]", "value": "BQL"}, {"measurement": "Fosmetpantotenate Total Concentration in Mouse Striatal Dialysate (Corrected for Dilution)", "setting": "[1]; [6]", "value": "BQL"}, {"measurement": "Fosmetpantotenate Total Concentration in Mouse Striatal Dialysate (Corrected for Dilution)", "setting": "[1]; [7]", "value": "BQL"}, {"measurement": "Fosmetpantotenate Total Concentration in Mouse Striatal Dialysate (Corrected for Dilution)", "setting": "[1]; [8]", "value": "BQL"}, {"measurement": "Fosmetpantotenate Total Concentration in Mouse Striatal Dialysate (Corrected for Dilution)", "setting": "[1]; [9]", "value": "BQL"}, {"measurement": "Fosmetpantotenate Total Concentration in Mouse Striatal Dialysate (Corrected for Dilution)", "setting": "[1]; [10]", "value": "BQL"}, {"measurement": "Fosmetpantotenate Total Concentration in Mouse Striatal Dialysate (Corrected for Dilution)", "setting": "[1]; single oral dose (so in the source) 125 µg fosmetpantotenate per animal, collection time 0 hr", "value": "0.1306 µM and 0.109 µM and 0.0833 µM and 0.3107 µM and 0.3579 µM and 0.2168 µM and 0.4624 µM"}, {"measurement": "Fosmetpantotenate Total Concentration in Mouse Striatal Dialysate (Corrected for Dilution)", "setting": "[1]; single oral dose (so in the source) 125 µg fosmetpantotenate per animal, collection time 0.5 hr", "value": "27.5961 µM and 228.5933 µM and 5852.2469 µM and 2389.398 µM and 1463.0617 µM and 6013.9111 µM and 2121.0353 µM"}, {"measurement": "Fosmetpantotenate Total Concentration in Mouse Striatal Dialysate (Corrected for Dilution)", "setting": "[1]; single oral dose (so in the source) 125 µg fosmetpantotenate per animal, collection time 1 hr", "value": "3.7441 µM and 35.9218 µM and 1147.8164 µM and 370.2112 µM and 269.3327 µM and 936.0362 µM and 475.293 µM"}, {"measurement": "Fosmetpantotenate Total Concentration in Mouse Striatal Dialysate (Corrected for Dilution)", "setting": "[1]; single oral dose (so in the source) 125 µg fosmetpantotenate per animal, collection time 1.5 hr", "value": "0.2457 µM and 3.8638 µM and 77.1139 µM and 16.3443 µM and 13.2241 µM and 54.6749 µM and 52.7026 µM"}, {"measurement": "Fosmetpantotenate Total Concentration in Mouse Striatal Dialysate (Corrected for Dilution)", "setting": "[1]; single oral dose (so in the source) 125 µg fosmetpantotenate per animal, collection time 2 hr", "value": "0.2142 µM and 1.3919 µM and 11.6398 µM and 2.8307 µM and 6.9839 µM and 18.3812 µM and 13.5798 µM"}, {"measurement": "Fosmetpantotenate Total Concentration in Mouse Striatal Dialysate (Corrected for Dilution)", "setting": "[1]; single oral dose (so in the source) 125 µg fosmetpantotenate per animal, collection time 2.5 hr", "value": "0.2094 µM and 0.4624 µM and 4.0416 µM and 0.9538 µM and 6.8061 µM and 14.469 µM and 7.8892 µM"}, {"measurement": "Fosmetpantotenate Total Concentration in Mouse Striatal Dialysate (Corrected for Dilution)", "setting": "[1]; single oral dose (so in the source) 125 µg fosmetpantotenate per animal, collection time 3 hr", "value": "0.1664 µM and 0.2839 µM and 1.9869 µM and 1.0929 µM and 4.1402 µM and 11.268 µM and 3.6164 µM"}, {"measurement": "Fosmetpantotenate Total Concentration in Mouse Striatal Dialysate (Corrected for Dilution)", "setting": "[1]; single oral dose (so in the source) 125 µg fosmetpantotenate per animal, collection time 3.5 hr", "value": "0.1305 µM and 0.2331 µM and 1.7056 µM and 0.6693 µM and 3.2575 µM and 11.9147 µM and 1.9173 µM"}, {"measurement": "Fosmetpantotenate Total Concentration in Mouse Striatal Dialysate (Corrected for Dilution)", "setting": "[1]; single oral dose (so in the source) 125 µg fosmetpantotenate per animal, collection time 4 hr", "value": "0.1387 µM and 0.2171 µM and 1.4129 µM and 0.5497 µM and 2.2649 µM and 9.8939 µM and 1.5099 µM"}, {"measurement": "concentration at 0 h", "setting": "[1]; [11]", "value": 0.239, "unit": "µM"}, {"measurement": "concentration at 0.5 h", "setting": "[1]; [11]", "value": 2590, "unit": "µM"}, {"measurement": "concentration at 1 h", "setting": "[1]; [11]", "value": 463, "unit": "µM"}, {"measurement": "concentration at 1.5 h", "setting": "[1]; [11]", "value": 31.2, "unit": "µM"}, {"measurement": "concentration at 2 h", "setting": "[1]; [11]", "value": 7.86, "unit": "µM"}, {"measurement": "concentration at 2.5 h", "setting": "[1]; [11]", "value": 4.98, "unit": "µM"}, {"measurement": "concentration at 3 h", "setting": "[1]; [11]", "value": 3.22, "unit": "µM"}, {"measurement": "concentration at 3.5 h", "setting": "[1]; [11]", "value": 2.83, "unit": "µM"}, {"measurement": "concentration at 4 h", "setting": "[1]; [11]", "value": 2.28, "unit": "µM"}, {"measurement": "Fosmetpantotenate Total Concentration in Mouse Striatal Dialysate (Corrected for Dilution), Mean", "setting": "[1]; [2]", "value": "BQL"}, {"measurement": "Fosmetpantotenate Total Concentration in Mouse Striatal Dialysate (Corrected for Dilution), Mean", "setting": "[1]; [3]", "value": "BQL"}, {"measurement": "Fosmetpantotenate Total Concentration in Mouse Striatal Dialysate (Corrected for Dilution), Mean", "setting": "[1]; [4]", "value": "BQL"}, {"measurement": "Fosmetpantotenate Total Concentration in Mouse Striatal Dialysate (Corrected for Dilution), Mean", "setting": "[1]; [5]", "value": "BQL"}, {"measurement": "Fosmetpantotenate Total Concentration in Mouse Striatal Dialysate (Corrected for Dilution), Mean", "setting": "[1]; [6]", "value": "BQL"}, {"measurement": "Fosmetpantotenate Total Concentration in Mouse Striatal Dialysate (Corrected for Dilution), Mean", "setting": "[1]; [7]", "value": "BQL"}, {"measurement": "Fosmetpantotenate Total Concentration in Mouse Striatal Dialysate (Corrected for Dilution), Mean", "setting": "[1]; [8]", "value": "BQL"}, {"measurement": "Fosmetpantotenate Total Concentration in Mouse Striatal Dialysate (Corrected for Dilution), Mean", "setting": "[1]; [9]", "value": "BQL"}, {"measurement": "Fosmetpantotenate Total Concentration in Mouse Striatal Dialysate (Corrected for Dilution), Mean", "setting": "[1]; [10]", "value": "BQL"}, {"measurement": "Cmax", "setting": "[1]; striatal dialysate, fosmetpantotenate 700 mg/kg PO, analyte = label, not baseline-adjusted", "value": "<LLOQ"}]}
